Among the test systems are A498 renal; SW-620 colon; NCI/ADR-RES ovarian; SNB-19 CNS; M14 melanoma; SNB-75 CNS; DU-145 prostate; MDA-MB-435; NCI-H23 lung; HOP-92 NSCLC.
What all share (assay): inhibition of tumour cell growth, NCI panel, 48 h

Where “and” joins values, the source holds several entries; their conditions need not be identical. Equal entries are not always repeated.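 Assay format: 96-well plates, 48-hour exposure. The concentration for 50% growth inhibition is given as GI50. TGI marks complete inhibition of growth.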 Where only a bound is given, the exact number is not on record here.

For `Clc1ccc2c(NCCNc3nc(N4CCCC4)nc4ccccc34)ccnc2c1`, the GI50 with A498 renal is 1.8 µM; with SW-620 colon, 0.1 µM; with NCI/ADR-RES ovarian, 2.78 µM; in the assay with SNB-19 CNS, 1.6 µM; with M14 melanoma, 0.935 µM; in the assay on SNB-75 CNS, 1.37 µM. Besides, the GI50 is 1.17 µM in the assay on DU-145 prostate, 1.6 µM in the assay with MDA-MB-435, 2.05 µM in the assay on NCI-H23 lung and 1.23 µM with HOP-92 NSCLC. Besides, the TGI with A498 renal was found to be 3.4 µM; in the assay on SW-620 colon, 1.45 µM; in the assay with NCI/ADR-RES ovarian it was 11.1 µM; in the assay on SNB-19 CNS, 5.62 µM; with M14 melanoma, 2.76 µM; in the assay with SNB-75 CNS it was 3 µM. Besides, the TGI in the assay on DU-145 prostate stood at 2.73 µM; in the assay with MDA-MB-435 it was 3.11 µM; with NCI-H23 lung, 5.22 µM; in the assay on HOP-92 NSCLC it was 2.66 µM.

On to `CCCCCC/C=C1\CCC(CN(C)C)C1=O` (configuration not stated), for which the TGI with A498 renal was found to be 32.1 µM; in the assay on SW-620 colon, 6.49 µM; with NCI/ADR-RES ovarian it was 44.4 µM; in the assay with SNB-19 CNS, 30.8 µM; in the assay with M14 melanoma it was 16.7 µM; in the assay with SNB-75 CNS, 23.8 µM. The TGI came out at 41.3 µM with DU-145 prostate, 21.6 µM in the assay with MDA-MB-435, 23.2 µM with NCI-H23 lung and 28.8 µM in the assay on HOP-92 NSCLC.

Regarding `COc1ccc(C2c3c(-c4ccccc4)nn(-c4ccccc4)c3Oc3ncn4nc(CC#N)nc4c32)cc1OC` (configuration not stated), the GI50 in the assay on A498 renal was > 100 µM and 10.8 µM; in the assay with SW-620 colon it was 24.2 µM and > 82.3 µM; in the assay with NCI/ADR-RES ovarian, 26.2 µM and 3.6 µM; in the assay on SNB-19 CNS, 23.6 µM and 4.62 µM; in the assay on M14 melanoma, 55.6 µM and 6.33 µM; in the assay on MDA-MB-435, > 100 µM. Moreover, the GI50 in the assay with NCI-H23 lung was 47.2 µM and 19.5 µM; in the assay with HOP-92 NSCLC, 17.6 µM and 1.96 µM. Further, the TGI with A498 renal is > 100 µM and 31.3 µM; with SW-620 colon it was > 100 µM; in the assay with NCI/ADR-RES ovarian, 67.5 µM and > 45.4 µM; in the assay on SNB-19 CNS, 73.7 µM and 33.7 µM; with M14 melanoma, > 100 µM and 13.3 µM; in the assay with SNB-75 CNS, > 100 µM and 12.2 µM. For the same compound, the TGI in the assay with DU-145 prostate, in the assay on MDA-MB-435 and in the assay on NCI-H23 lung was > 100 µM throughout.

Turning to `Cc1c(-c2nnc(-c3cc(Cl)c(Cl)cc3Cl)o2)nnn1-c1ccnc2c(C(F)(F)F)cccc12`, the GI50 with A498 renal is 30.3 µM; in the assay on SW-620 colon, 30.8 µM; in the assay with NCI/ADR-RES ovarian, 22.7 µM; with SNB-19 CNS it was 23.8 µM; in the assay on M14 melanoma, 26.2 µM; with SNB-75 CNS, 18.7 µM. In addition, the GI50 was 19.5 µM with DU-145 prostate, 26.8 µM in the assay on MDA-MB-435, 26.5 µM with NCI-H23 lung and 14.4 µM in the assay with HOP-92 NSCLC. Further, the TGI with A498 renal was 76.3 µM; in the assay with SW-620 colon it was > 100 µM; with NCI/ADR-RES ovarian, 57.1 µM; in the assay with SNB-19 CNS, 79.9 µM; with M14 melanoma, 70.5 µM; in the assay on SNB-75 CNS, 43.5 µM. Also, the TGI with DU-145 prostate is 41.6 µM; with MDA-MB-435, 75.1 µM; in the assay on NCI-H23 lung, 81.1 µM; in the assay with HOP-92 NSCLC, 32.2 µM.

For the compound `CCN1CCN(c2ccc(Nc3ncc4ccc5ncn(C(C)C)c5c4n3)nc2)CC1`, the GI50 in the assay on A498 renal was < 0.0337 µM; in the assay with SW-620 colon, 0.0352 µM; with NCI/ADR-RES ovarian, 0.292 µM; in the assay on SNB-19 CNS it was 0.187 µM; with M14 melanoma, 0.124 µM; in the assay with SNB-75 CNS, 0.14 µM. Moreover, the GI50 in the assay with DU-145 prostate was 0.126 µM; in the assay with MDA-MB-435, 0.132 µM; with NCI-H23 lung it was 0.211 µM; in the assay on HOP-92 NSCLC, 0.155 µM. Besides, the TGI with A498 renal amounted to 0.241 µM; in the assay with SW-620 colon it was 0.418 µM; in the assay on NCI/ADR-RES ovarian, 13.9 µM; in the assay with SNB-19 CNS, 15.5 µM; in the assay on M14 melanoma, 1.34 µM; with SNB-75 CNS, 0.415 µM. Moreover, the TGI in the assay with DU-145 prostate came to 4.3 µM; in the assay with MDA-MB-435, 1.61 µM; in the assay with NCI-H23 lung it was 0.85 µM; with HOP-92 NSCLC it was 0.474 µM.

As for `Nc1ccc(-c2ccc(-c3nc4cc(Cl)c(Cl)cc4[nH]3)cc2)cc1`, the GI50 with A498 renal was 18 µM; in the assay with SW-620 colon, < 0.0313 µM; in the assay with NCI/ADR-RES ovarian it was 3.6 µM; with SNB-19 CNS, 23.7 µM; with M14 melanoma, 0.0456 µM; in the assay with SNB-75 CNS, 16.3 µM. For the same compound, the GI50 with DU-145 prostate is 2.36 µM; with MDA-MB-435 it was 0.199 µM; in the assay on NCI-H23 lung it was 20.1 µM; in the assay on HOP-92 NSCLC, 23 µM. Besides, the TGI with A498 renal was > 70.7 µM; with SW-620 colon it was > 100 µM; in the assay with NCI/ADR-RES ovarian it was > 79.2 µM; in the assay on SNB-19 CNS, > 100 µM; in the assay with M14 melanoma, > 37.1 µM; with SNB-75 CNS, 55.9 µM. In addition, the TGI in the assay with DU-145 prostate was 98.4 µM; in the assay with MDA-MB-435, > 84.7 µM; in the assay on NCI-H23 lung, > 100 µM; with HOP-92 NSCLC, 65 µM.

Regarding `COc1cc(N2CCC(N3CCN(C)CC3)CC2)ccc1Nc1ncc(Cl)c(Nc2ccccc2S(=O)(=O)C(C)C)n1`, the GI50 is 0.263 µM in the assay with A498 renal; 0.337 µM in the assay with SW-620 colon; 1.29 µM in the assay on NCI/ADR-RES ovarian; 2.07 µM with SNB-19 CNS; 1.16 µM in the assay with M14 melanoma; 0.919 µM with SNB-75 CNS. Moreover, the GI50 in the assay on DU-145 prostate is 1.46 µM; with MDA-MB-435, 0.387 µM; with NCI-H23 lung it was 1.05 µM; in the assay with HOP-92 NSCLC it was 0.0476 µM. Also, the TGI amounted to 1.73 µM in the assay on A498 renal; 2.52 µM in the assay on SW-620 colon; 5.75 µM in the assay with NCI/ADR-RES ovarian; 12.2 µM with SNB-19 CNS; 2.51 µM in the assay on M14 melanoma; 2.17 µM in the assay with SNB-75 CNS. For the same compound, the TGI in the assay on DU-145 prostate came out at 7.88 µM; with MDA-MB-435 it was 2.36 µM; in the assay with NCI-H23 lung it was 8.1 µM; in the assay on HOP-92 NSCLC, 0.433 µM.

Turning to `CNC(=O)CN1CCC(Oc2cc3c(Nc4cccc(Cl)c4F)ncnc3cc2OC)CC1`, the GI50 in the assay on A498 renal was 1.1 µM and 1.33 µM; with SW-620 colon, 15.6 µM and > 6.56 µM; in the assay on NCI/ADR-RES ovarian it was 11.4 µM and > 6.36 µM; in the assay with SNB-19 CNS it was 31.5 µM and > 8.29 µM; in the assay on M14 melanoma, 18 µM and > 8.27 µM; in the assay on SNB-75 CNS, 2.09 µM and 1.84 µM. Moreover, the GI50 with DU-145 prostate is 3.64 µM and 2.19 µM; in the assay with MDA-MB-435 it was 21.5 µM and > 8.41 µM; with NCI-H23 lung it was 18.2 µM and > 7.11 µM; with HOP-92 NSCLC, 1.9 µM and 1.29 µM. In addition, the TGI is 11.5 µM and > 10 µM in the assay with A498 renal; 32.9 µM and > 10 µM in the assay on SW-620 colon; 66.4 µM and > 10 µM in the assay on NCI/ADR-RES ovarian; > 100 µM in the assay with SNB-19 CNS; 34.1 µM and > 10 µM with M14 melanoma; 10.8 µM and > 10 µM with SNB-75 CNS. In addition, the TGI in the assay with DU-145 prostate was > 56 µM; in the assay on MDA-MB-435, > 62.4 µM; in the assay with NCI-H23 lung, > 58.5 µM; in the assay with HOP-92 NSCLC, 16.4 µM and > 9.33 µM.

The record behind these values is PubChem BioAssay (NCI).
